Reference: patent publication US20260116910A1, “POLYCYCLIC COMPOUNDS AND METHODS THEREOF” (HEPAITECH (BEIJING) BIOPHARMA TECHNOLOGY CO., LTD., priority 2021, published 2026)

Columns and labels:
[1] = biological target: T1, human FXR (NR1H4) (Homo sapiens, UniProt Q96RI1); test: Human FXR (NR1H4) agonist assessment, FXRE-NanoLuc reporter in HEK293T cells; assay type: cell-based; conditions: FXR activation, HEK293T FXRE-NanoLuc reporter, 24 hr; for EC50: read-out: EC50
T1 sequence (Q96RI1 1-476 isoform Q96RI1-1): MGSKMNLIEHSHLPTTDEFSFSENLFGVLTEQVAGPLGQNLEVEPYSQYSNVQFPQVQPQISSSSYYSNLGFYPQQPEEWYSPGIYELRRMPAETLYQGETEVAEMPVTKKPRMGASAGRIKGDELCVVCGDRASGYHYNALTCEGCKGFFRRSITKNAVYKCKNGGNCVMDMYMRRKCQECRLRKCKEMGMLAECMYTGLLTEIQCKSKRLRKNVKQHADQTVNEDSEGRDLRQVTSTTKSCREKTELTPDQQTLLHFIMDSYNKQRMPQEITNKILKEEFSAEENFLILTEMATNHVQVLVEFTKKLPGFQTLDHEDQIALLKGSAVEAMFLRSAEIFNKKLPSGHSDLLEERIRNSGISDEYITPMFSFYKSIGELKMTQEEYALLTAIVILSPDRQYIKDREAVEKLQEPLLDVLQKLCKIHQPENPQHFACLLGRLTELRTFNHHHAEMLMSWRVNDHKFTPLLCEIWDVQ
Summary of the method: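 Read-out was NanoLuc luminescence in culture medium, measured 5 min after adding coelenterazine. Cells were HEK293T stably carrying human FXR and an FXRE reporter, exposed to compound for 24 hr at 37 °C. Vehicle was 0.01% DMSO. EC50 was obtained from sigmoid fits of gradient dilutions.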

[2] = biological target: MRGPRX4 (Homo sapiens, UniProt Q96LA9); test: MRGPRX4 activation, Fluo-8 Ca2+ FLIPR assay in HEK293T cells stably expressing MRGPRX4; assay type: cell-based; parameters: key to MRGPRX4 activation, Average / MRGPRX4 activation, Ave.: fluorescence change dF/F0; conditions: for EC50: MRGPRX4 activation, Ca2+ fluorescence, no activation in tested range reported as III, read-out: Activity (EC50 μM)
Sequence of MRGPRX4 (Q96LA9 whole entry): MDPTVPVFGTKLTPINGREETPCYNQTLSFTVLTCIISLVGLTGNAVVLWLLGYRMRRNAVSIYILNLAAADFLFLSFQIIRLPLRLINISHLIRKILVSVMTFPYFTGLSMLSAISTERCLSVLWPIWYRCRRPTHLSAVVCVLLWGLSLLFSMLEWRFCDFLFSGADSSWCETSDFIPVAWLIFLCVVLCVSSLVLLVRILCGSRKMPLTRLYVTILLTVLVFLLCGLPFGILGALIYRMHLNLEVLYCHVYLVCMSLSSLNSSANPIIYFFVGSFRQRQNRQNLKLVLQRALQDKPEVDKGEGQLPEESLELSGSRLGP
Summary of the method: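 Response measured as dF/F0: 30 s baseline, then 150 s after compound addition on FLIPR Tetra, in HHBS after 40-60 min room-temperature loading with 2 μM Fluo-8 AM.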

COC(=O)CC[C@@H](C)[C@H]1CC[C@H]2[C@@H]3/C(=N\OC(C)(C)C(=O)O)C[C@@H]4C[C@H](OC(C)=O)CC[C@]4(C)[C@H]3CC[C@]12C [1-3]
Efficacy (maximum measured induction of NanoLuc, normalized to CDCA set as 100%) [1]: C (100%<efficacy <=300%)
EC50 [1]: > 10 µM
MRGPRX4 activation, fluorescence change (dF/F0), Average ([2]; Conc. (Log[M]) −4): 0.109
MRGPRX4 activation, fluorescence change (dF/F0), Average ([2]; Conc. (Log[M]) −4.5): 0.114
MRGPRX4 activation, fluorescence change (dF/F0), Average ([2]; Conc. (Log[M]) −5): 0.047
MRGPRX4 activation, fluorescence change (dF/F0), Average ([2]; Conc. (Log[M]) −5.5): −0.026
MRGPRX4 activation, fluorescence change (dF/F0), Average ([2]; Conc. (Log[M]) −6): −0.008
MRGPRX4 activation, fluorescence change (dF/F0), Average ([2]; Conc. (Log[M]) −7): 0.018
MRGPRX4 activation, fluorescence change (dF/F0), Average ([2]; Conc. (Log[M]) −8): −0.003
MRGPRX4 activation, fluorescence change (dF/F0), Average ([2]; Conc. (Log[M]) −9): 0.008
EC50 [2]: < 50 µM

CC[C@H]1[C@@H](O)[C@@H]2[C@H](CC[C@]3(C)[C@@H]([C@H](C)COC(=O)NS(=O)(=O)c4ccc5c(c4)CCC(C)(C)O5)CC[C@@H]23)[C@@]2(C)CCCC[C@@H]12 [18-2]
Efficacy (maximum measured induction of NanoLuc, normalized to CDCA set as 100%) [1]: A (efficacy >400%)
EC50 [1]: < 1 µM
EC50 [2]: > 100 µM
Activation (%) ([2]; second E3-8-1, 4.6 nM, n = 1): 2.86%
Activation (%) ([2]; second E3-8-1, 4.6 nM, n = 2): 3.17%
Activation (%) ([2]; second E3-8-1, 14 nM, n = 1): 3.79%
Activation (%) ([2]; second E3-8-1, 14 nM, n = 2): 3.79%
Activation (%) ([2]; second E3-8-1, 41 nM, n = 1): 3.17%
Activation (%) ([2]; second E3-8-1, 41 nM, n = 2): 1.93%
Activation (%) ([2]; second E3-8-1, 123 nM, n = 1): 3.48%
Activation (%) ([2]; second E3-8-1, 123 nM, n = 2): 2.86%
Activation (%) ([2]; second E3-8-1, 370 nM, n = 1): 3.48%
Activation (%) ([2]; second E3-8-1, 370 nM, n = 2): 3.48%
Activation (%) ([2]; second E3-8-1, 1111 nM, n = 1): 2.24%
Activation (%) ([2]; second E3-8-1, 1111 nM, n = 2): 2.55%
Activation (%) ([2]; second E3-8-1, 3333 nM, n = 1): 3.17%
Activation (%) ([2]; second E3-8-1, 3333 nM, n = 2): 1.93%
Activation (%) ([2]; second E3-8-1, 10000 nM, n = 1): 3.48%
Activation (%) ([2]; second E3-8-1, 10000 nM, n = 2): 2.24%
Activation (%) ([2]; second E3-8-1, 30000 nM, n = 1): 4.10%
Activation (%) ([2]; second E3-8-1, 30000 nM, n = 2): 3.48%

CC[C@H]1[C@@H](O)[C@@H]2[C@H](CC[C@]3(C)[C@@H]([C@H](C)CCNC(=O)NS(=O)(=O)c4ccc(C(C)(C)CN)cc4)CC[C@@H]23)[C@@]2(C)CCCC[C@@H]12 [5-18]
Efficacy (maximum measured induction of NanoLuc, normalized to CDCA set as 100%) [1]: B (300%<efficacy <=400%)
EC50 [1]: < 1 µM
MRGPRX4 activation, fluorescence change (dF/F0), Average ([2]; Conc. (Log[M]) −4.0): 0.018
MRGPRX4 activation, fluorescence change (dF/F0), Average ([2]; Conc. (Log[M]) −4.5): 0.008
MRGPRX4 activation, fluorescence change (dF/F0), Average ([2]; Conc. (Log[M]) −5.0): 0.021
MRGPRX4 activation, fluorescence change (dF/F0), Average ([2]; Conc. (Log[M]) −5.4): 0.021
MRGPRX4 activation, fluorescence change (dF/F0), Average ([2]; Conc. (Log[M]) −5.9): 0.021
MRGPRX4 activation, fluorescence change (dF/F0), Average ([2]; Conc. (Log[M]) −6.4): 0.021
MRGPRX4 activation, fluorescence change (dF/F0), Average ([2]; Conc. (Log[M]) −6.9): 0.011
MRGPRX4 activation, fluorescence change (dF/F0), Average ([2]; Conc. (Log[M]) −7.3): 0.018
MRGPRX4 activation, fluorescence change (dF/F0), Average ([2]; Conc. (Log[M]) −7.8): 0.020
MRGPRX4 activation, fluorescence change (dF/F0), Average ([2]; Conc. (Log[M]) −8.3): 0.013
EC50 [2]: > 100 µM

CC[C@H]1[C@@H](O)[C@@H]2[C@H](CC[C@]3(C)[C@@H]([C@H](C)CCNC(=O)NS(=O)(=O)C4CCCCC4)CC[C@@H]23)[C@@]2(C)CCCC[C@@H]12 [5-3]
Efficacy (maximum measured induction of NanoLuc, normalized to CDCA set as 100%) [1]: C (100%<efficacy <=300%)
EC50 [1]: 1 to 10 µM
MRGPRX4 activation, fluorescence change (dF/F0), Average ([2]; Conc. (Log[M]) −4): 0.297
MRGPRX4 activation, fluorescence change (dF/F0), Average ([2]; Conc. (Log[M]) −4.5): 0.031
MRGPRX4 activation, fluorescence change (dF/F0), Average ([2]; Conc. (Log[M]) −5): 0.001
MRGPRX4 activation, fluorescence change (dF/F0), Average ([2]; Conc. (Log[M]) −5.5): −0.012
MRGPRX4 activation, fluorescence change (dF/F0), Average ([2]; Conc. (Log[M]) −6): −0.033
MRGPRX4 activation, fluorescence change (dF/F0), Average ([2]; Conc. (Log[M]) −7): −0.011
MRGPRX4 activation, fluorescence change (dF/F0), Average ([2]; Conc. (Log[M]) −8): −0.012
MRGPRX4 activation, fluorescence change (dF/F0), Average ([2]; Conc. (Log[M]) −9): 0.002
EC50 [2]: > 100 µM

CC[C@H]1[C@@H](O)[C@@H]2[C@H](CC[C@]3(C)[C@@H]([C@H](C)CCNC(=O)C(=O)NS(=O)(=O)c4ccc(C(C)(C)CF)cc4)CC[C@@H]23)[C@@]2(C)CCCC[C@@H]12 [8-3]
Efficacy (maximum measured induction of NanoLuc, normalized to CDCA set as 100%) [1]: C (100%<efficacy <=300%)
EC50 [1]: < 1 µM
MRGPRX4 activation, Average ([2]; E3-9, Conc. (Log[M]) −4.0): 0.023
MRGPRX4 activation, Average ([2]; E3-9, Conc. (Log[M]) −4.5): 0.016
MRGPRX4 activation, Average ([2]; E3-9, Conc. (Log[M]) −5.0): 0.016
MRGPRX4 activation, Average ([2]; E3-9, Conc. (Log[M]) −5.4): 0.023
MRGPRX4 activation, Average ([2]; E3-9, Conc. (Log[M]) −5.9): 0.025
MRGPRX4 activation, Average ([2]; E3-9, Conc. (Log[M]) −6.4): 0.013
MRGPRX4 activation, Average ([2]; E3-9, Conc. (Log[M]) −6.9): 0.013
MRGPRX4 activation, Average ([2]; E3-9, Conc. (Log[M]) −7.3): 0.013
MRGPRX4 activation, Average ([2]; E3-9, Conc. (Log[M]) −7.8): 0.011
MRGPRX4 activation, Average ([2]; E3-9, Conc. (Log[M]) −8.3): 0.018
EC50 [2]: > 100 µM
